Data on five compounds can be found in US4540708A, “Sulfenyl carbamate derivatives and insecticidal compositions containing the same” (priority 1982, dated 1985).

One data set deals with warm-blooded animals. To be noted: known compounds, background; cited from earlier work.
Data set [1] has as its system green rice leafhopper (Nephotettix cincticeps). Briefly: Test Example 2: mortality of female adults of green rice leafhopper on paddy rice, 3 days. To be noted: 72 h. The class given is in vivo. The procedure: An emulsion of specified concentration was prepared from a 50% wettable powder of the compound to be tested and applied to the leaves of paddy rice (one-month-old seedlings) planted in a pot to fully wet the leaves. After the emulsion had been dried, the pot was covered with a net cage, into which 10 female adults of green rice leafhopper (Nephotettix cincticeps) were released. The compound of each specified concentration was tested on two pots.

Data set [2] in a line: Test Example 4: acute toxicity by oral administration in male mice (Litchfield-Wilcoxon). Further details: unit not given here. To be noted: mouse, in vivo, mortality on the seventh day. The procedure: Compounds of this invention were tested on male mice for acute toxicity by oral administration.
Data set [3] relates to tobacco cutworm (Spodoptera litura). Briefly: Test Example 1: mortality of third-instar larvae of tobacco cutworm on cabbage, 3 days. The class given is in vivo. To be noted: 72 h. The procedure: Ten third-instar larvae of tobacco cutworm (Spodoptera litura) were placed on a cabbage (one-month-old seedling) planted in a pot, and a 50% emulsion of the compound to be tested was diluted to a specified concentration and applied to the leaves of the plant to fully wet them. The test compound of each specified concentration was tested on two pots.

Data set [4] deals with mites, eelworms and other agricultural and forestry noxious insects and household noxious insects. The conditions noted are these: known compounds, background; cited from earlier work.

For `CNC(=O)ON=C(C)SC` [Control*, S--methyl N--[(methylcarbamoyl)oxy]thioacetimidate], the “toxicity to warm-blooded animals (in words)” value with warm-blooded animals is recorded as “high toxicity to warm-blooded animals”.
With `COCCN(CC(=O)OC)SN(C)C(=O)Oc1cccc2c1OC(C)(C)C2` [Example 4], in data set [1], the mortality (commonly the share of the test organisms that died) at 200 ppm is 75%, the mortality at 400 ppm amounted to 95% and the mortality at 800 ppm was 100%. Further, the LD50 at 168 h in data set [2] amounted to 90000. Also, in data set [3], the mortality at 125 ppm was found to be 45%, the mortality at 250 ppm stood at 65%, the mortality at 500 ppm came to 80% and the mortality at 1000 ppm was 90%.
For `COCCN(CCC#N)SN(C)C(=O)Oc1cccc2c1OC(C)(C)C2` [Example 2, 2,3-dihydro-2,2-dimethylbenzofuran-7-yl N-[N-(2-methoxyethyl)-N-cyanoethylaminosulfenyl]N-methyl-carbamate], in data set [1], the mortality at 200 ppm came to 65%, the mortality at 400 ppm was determined as 85% and the mortality at 800 ppm worked out at 100%. The LD50 at 168 h in data set [2] was determined as 98000. Besides, in data set [3], the mortality at 125 ppm worked out at 40%, the mortality at 250 ppm is 55%, the mortality at 500 ppm came to 70% and the mortality at 1000 ppm worked out at 85%.
For the compound `CNC(=O)Oc1cccc2c1OC(C)(C)C2` [Control 1, 2,3dihydro-2,2-dimethylbenzofuran-7-yl-N--methylcarbamate], the “toxicity to warm-blooded animals (in words)” value in the data set on warm-blooded animals was “high toxicity to warm-blooded animals”. Further, the “insecticidal activity (in words)” value in data set [4] is “high insecticidal activity”.
For `COCCN(CC#N)SN(C)C(=O)Oc1cccc2c1OC(C)(C)C2` [Example 5], in data set [1], the mortality at 200 ppm is 70%, the mortality at 400 ppm is 90% and the mortality at 800 ppm is 100%. In data set [2], this compound showed an LD50 at 168 h of 68000. In data set [3], the mortality at 125 ppm was found to be 50%, the mortality at 250 ppm is 70%, the mortality at 500 ppm amounted to 80% and the mortality at 1000 ppm turned out to be 90%.
